Measured values as given in a melting point compilation (Tetko et al.; mined from patent text by program, amines drawn as free bases though some values may be those of a salt).

SMILES | melting point
O=C1CCCCc2ccccc21 | 79 to 84 °C
Nc1nc2ccc(Cc3ccccc3)cc2s1 | 173 to 175 °C
CP(C)(=O)CNc1cc(Oc2ccc(C(F)(F)F)cc2Cl)ccc1[N+](=O)[O-] | 166 to 168 °C
CCOC(=O)c1c2n(c3c(F)c(N4CCC(NC(=O)OC(C)(C)C)C4)c(F)cc3c1=O)C(C)S2 (centres undefined) | 174 to 176 °C
COc1cc(Nc2c(C#N)cnc3sc(CCCCO)cc23)cc(OC)c1OC | 125 to 127 °C
CSc1nnc(-c2cc3c([nH]c2=O)CCN(Cc2ccccc2)C3)o1 | 215 to 217 °C
COc1cc(C(=O)c2c(C)c(C(=O)O)c3ccccn23)ccc1[N+](=O)[O-] | 215 °C
CCN1C(=O)CCCc2c1ccc(Nc1ncc(Cl)c(Nc3ccc(N4CCOCC4)cc3OC)n1)c2OC | 210 to 212 °C
CCCc1nc(Sc2ccc(O)cc2)c(C=O)n1Cc1cc2c(cc1Cl)OCO2 | 242 °C
c1ccc2c(c1)nc(-c1ccc3c(c1)OCO3)n2CCC1CCCCC1 | 110 to 111 °C
CC(NC(=O)CCc1ccc(C(C)(C)C)cc1)c1ccc(NS(C)(=O)=O)c(F)c1 (centres undefined) | 152 to 154 °C
Oc1ccc2c(c1)COc1c-2cc2ccc(O)cc2c1-c1ccccc1 | 225 to 227 °C
O=C(OCC(Cl)(Cl)Cl)ON1C(=O)CCC1=O | 98 to 101 °C
CC(C)C[C@H](NC(=O)C=Cc1ccccc1)C(=O)N[C@@H](Cc1ccccc1)C(=O)CSCc1ccco1 | 141 to 143 °C
CN(C)C1CCc2[nH]c3cccc(OCc4ccccc4)c3c2C1 (centres undefined) | 207 to 209 °C
Nc1cccc2c1Cc1cccc(N)c1C2 | 179 °C
COc1ccc(OC)c2c1C[C@@H](O)[C@H](N1CCN(c3ccccc3Cl)CC1)C2 (relative stereo) | 237 to 239 °C
CC(=O)c1nnc(-c2ccc3occ(-c4cccc(OC(F)(F)F)c4)c3c2)o1 | 64 to 65 °C
CN(c1ncccc1[N+](=O)[O-])C1CCN(Cc2ccccc2)CC1 | 92 to 95 °C
COc1cccc(C2CCC(O)O2)c1 (centres undefined) | 76.5 to 78 °C
CC(=O)c1c(-c2ccncc2)[nH]c(-c2ccncc2)c1C | 237 to 240 °C
O=C(O)c1ccc(CNC(=O)C2Cc3ccccc3N2S(=O)(=O)c2ccc(-c3ccc(F)cc3OC(F)F)cc2)cc1 (centres undefined) | 92 to 97 °C
CCOc1ccc(NC(=O)C(C)(C)O)cc1 | 146 to 148 °C
COc1cc(CN2CC[C@H](O)C2)ccc1-c1nc2c(N[C@H]3[C@@H](C(N)=O)[C@@H]4C=C[C@H]3C4)c(Cl)cnc2[nH]1 | 205 to 208 °C
NC1([C@@H]2CCN(c3ccc4c(=O)c(C(=O)O)cn([C@@H]5C[C@@H]5F)c4c3)C2)CC1 | 251 to 253 °C

SMILES | melting point
COc1cc(N(C)C)c(Cl)cc1C(=O)NC1CCN(Cc2ccc(F)cc2)C1 (centres undefined) | 139 to 141 °C
OC(COc1ccn(-c2ccc(Cl)c(Cl)c2)n1)CN1CCOCC1 (centres undefined) | 158 to 161 °C
Cc1cnc(NS(C)(=O)=O)cc1C(c1cc(F)ccc1F)S(=O)(=O)c1ccc(Cl)cc1 (centres undefined) | 214 to 217 °C
CC1(O)c2ccccc2CCC1OS(=O)(=O)CC12CCC(CC1=O)C2(C)C (centres undefined) | 105 °C
CCCCCCCCCCCCCCCCNc1ccc(C(=O)OC2COC(c3ccccc3)OC2)cc1 (centres undefined) | 115 to 117 °C
Cc1cnc2c(C(N)=O)cnn2c1-c1cccc(C(F)(F)F)c1 | 237 to 239 °C
OC/C=C/c1ccc(C(F)(F)F)cc1 | 53 to 55 °C
CCCCc1nn(-c2ccccc2C(F)(F)F)c(=O)n1Cc1ccc(-c2ccccc2S(=O)(=O)NC(C)(C)C)cc1 | 168 to 170 °C
O=C(NN1CCc2ccccc2C(Oc2ccc(C(F)(F)F)cc2)C1)C(F)(F)F (centres undefined) | 192 to 195 °C
O=C(O)c1ccc(NCCCCCCOc2ccc3ccccc3c2)cc1 | 157 to 159 °C
Cc1nc(-n2cc(CCC3CCCCC3)nn2)sc1C(=O)NCc1ccccc1 | 82 to 84 °C
O=C1CC2CSc3sccc3C2=NN1c1ccc(Cl)cc1 (centres undefined) | 134 to 135 °C
O=C(O)c1cccc(CN2CCC(c3cn(CCc4ccccn4)c4ccccc34)CC2)c1 | 141 to 142 °C
COc1cccc([C@H]2O[C@H](CC(=O)Nc3cc(CCCCC(=O)O)ccc3F)C(=O)N(CC(C)(C)CO)c3ccc(Cl)cc32)c1OC | 115 to 118 °C
CC(=O)CN1C(=O)c2ccccc2C1=O | 92 to 94 °C
O=C(Nc1ccc(C(=O)N2Cc3ccccc3Sc3ccccc32)cc1)c1ccc(Cl)cc1Cl | 112 to 115 °C
C=C(CN(C)C)C(O)c1ncc2c(c1O)COC2c1ccc(OC)cc1 (centres undefined) | 169 to 170 °C
CC(=NOCCO)c1ccc(-c2ccc3c(c2)OCO3)cc1 | 132 to 134 °C
Cc1cccc(-c2nc3cccnn3c2-c2ccnc(N[C@@H](C)c3ccccc3)c2)c1 | 154 to 155 °C
COC(=O)C1=C(C)NC2=C(C(=O)NCC2)C1c1ccc(F)c(Br)c1 (centres undefined) | 150 to 152 °C
OCCOc1ccc(O)c(Cl)c1 | 76 to 82 °C
O=C1CCC(O)C(C(c2ccccc2)c2ccccc2)N1 (centres undefined) | 208 °C
CCc1cccc(NCCCc2cn(C(c3ccccc3)(c3ccccc3)c3ccccc3)cn2)c1 | 189 to 191 °C
CC1(C)Oc2ccc(Br)cc2C(n2ccccc2=O)=C1CN(O)C(N)=O | 216 °C
